According to PubChem BioAssay (NCI):
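GI50 marks 50% less growth. TGI marks complete inhibition of growth.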

Assays:
Experiment in all cases: NCI-60 cell line screen, 384-well format
[1] = test system: IGROV1 ovarian
[2] = test system: UACC-257 melanoma
[3] = test system: SN12C renal
[4] = test system: KM12 colon
[5] = test system: LOX IMVI melanoma
[6] = test system: SNB-75 CNS
[7] = test system: COLO 205 colon
[8] = test system: NCI-H226 lung
[9] = test system: BT-549 breast
[10] = test system: OVCAR-5 ovarian
[11] = test system: HCT-15 colon
[12] = test system: T-47D breast
[13] = test system: MCF7 breast
[14] = test system: HT29 colon
[15] = test system: MALME-3M melanoma
[16] = test system: UO-31 renal
[17] = test system: RPMI-8226 leukemia
[18] = test system: EKVX NSCLC
[19] = test system: NCI/ADR-RES ovarian
[20] = test system: SW-620 colon
[21] = test system: PC-3 prostate
[22] = test system: CAKI-1 renal
[23] = test system: MDA-MB-468 breast
[24] = test system: MDA-MB-231 breast
[25] = test system: NCI-H460 NSCLC
[26] = test system: SF-268 CNS
[27] = test system: NCI-H522 lung
[28] = test system: SNB-19 CNS
[29] = test system: U251 glioblastoma
[30] = test system: A549 NSCLC
[31] = test system: SK-OV-3 ovarian
[32] = test system: MDA-MB-435 melanoma
[33] = test system: A498 renal
[34] = test system: 786-0 renal
[35] = test system: SK-MEL-5 melanoma
[36] = test system: MOLT-4 leukemia
[37] = test system: HCC-2998 colon
[38] = test system: RXF 393 renal
[39] = test system: K-562 leukemia
[40] = test system: OVCAR-3 ovarian
[41] = test system: TK-10 renal
[42] = test system: HL-60(TB) leukemia
[43] = test system: SK-MEL-28 melanoma
[44] = test system: HOP-92 NSCLC
[45] = test system: SR leukemia
[46] = test system: M14 melanoma
[47] = test system: ACHN renal
[48] = test system: HOP-62 NSCLC
[49] = test system: SF-539 CNS
[50] = test system: DU-145 prostate
[51] = test system: OVCAR-4 ovarian
[52] = test system: OVCAR-8 ovarian
[53] = test system: CCRF-CEM leukemia
[54] = test system: SF-295 CNS
[55] = test system: HCT-116 colon
[56] = test system: NCI-H322M lung
[57] = test system: HS 578T breast
[58] = test system: NCI-H23 lung

## COc1cccc(OCCCN)c1-c1cc(Nc2cnc(C#N)cn2)n[nH]1
[1]
  TGI: 1.27 µM
[2]
  GI50: 0.0181 µM
  TGI: 0.0814 µM
[3]
  GI50: 0.0396 µM
  TGI: 0.761 µM
[4]
  TGI: 0.0867 µM
[5]
  GI50: 0.0234 µM
  TGI: 0.847 µM
[6]
  GI50: 0.0171 µM
  TGI: 0.49 µM
[7]
  GI50: 0.0169 µM
  TGI: 0.133 µM
[8]
  GI50: 5.36 µM
  TGI: 18.8 µM
[9]
  TGI: 0.0242 µM
[10]
  TGI: 0.017 µM
[11]
  GI50: 0.0121 µM
  TGI: 0.0288 µM
[12]
  GI50: 1.83 µM
  TGI: 18.3 µM
[13]
  TGI: 13.3 µM
[14]
  GI50: 0.0199 µM
  TGI: 0.145 µM
[15]
  TGI: 0.0349 µM
[16]
  TGI: 16.3 µM
[17]
  TGI: 0.0278 µM
[18]
  TGI: 12.7 µM
[19]
  GI50: 0.016 µM
  TGI: 0.0596 µM
[20]
  GI50: 0.0715 µM
  TGI: 2.29 µM
[21]
  GI50: 0.0559 µM
  TGI: 13.2 µM
[22]
  GI50: 0.0354 µM
  TGI: 2.62 µM
[23]
  TGI: 0.0116 µM
[24]
  GI50: 0.0353 µM
  TGI: 5.25 µM
[25]
  GI50: 0.0209 µM
  TGI: 0.121 µM
[26]
  GI50: 0.0249 µM
  TGI: 6.59 µM
[27]
  GI50: 0.0352 µM
  TGI: 0.833 µM
[28]
  TGI: 0.122 µM
[29]
  GI50: 0.0255 µM
  TGI: 11.9 µM
[30]
  TGI: 14.2 µM

## CC1(O)CC(c2nc(-c3ccc4ccc(-c5ccccc5)nc4c3)c3c(N)nccn23)C1 (centres undefined)
[31]
  GI50: 8.99 µM
  TGI: 21 µM
[1]
  GI50: 10.7 µM
  TGI: 24.1 µM
[32]
  GI50: 7.98 µM
  TGI: 20.8 µM
[2]
  GI50: 10.7 µM
  TGI: 22.5 µM
[3]
  GI50: 12.8 µM
  TGI: 25.6 µM
[33]
  GI50: 6.67 µM
  TGI: 19 µM
[4]
  GI50: 3.97 µM
  TGI: 13.8 µM
[5]
  GI50: 11.1 µM
  TGI: 23.2 µM
[34]
  GI50: 12.5 µM
  TGI: 25.1 µM
[35]
  GI50: 2.43 µM
  TGI: 12 µM
[6]
  GI50: 10.3 µM
  TGI: 22 µM
[7]
  GI50: 0.209 µM
  TGI: 11.3 µM
[36]
  GI50: 2.89 µM
  TGI: 10.4 µM
[8]
  GI50: 2.86 µM
  TGI: 12.2 µM
[37]
  GI50: 8.12 µM
  TGI: 20.7 µM
[38]
  GI50: 2.76 µM
  TGI: 9.01 µM
[39]
  GI50: 7.3 µM
  TGI: 20.5 µM
[9]
  GI50: 5.8 µM
  TGI: 18.2 µM
[10]
  GI50: 12.7 µM
  TGI: 25.9 µM
[40]
  GI50: 10.5 µM
  TGI: 22.4 µM
[41]
  GI50: 6.58 µM
  TGI: 19.3 µM
[42]
  GI50: 0.0517 µM
  TGI: 1.61 µM
[11]
  GI50: 3.09 µM
  TGI: 14.6 µM
[43]
  GI50: 13.8 µM
  TGI: 26.7 µM
[12]
  GI50: 4.67 µM
  TGI: 14.3 µM
[44]
  GI50: 2.73 µM
  TGI: 15.3 µM
[45]
  GI50: 10.2 µM
  TGI: 21.8 µM
[13]
  GI50: 0.182 µM
  TGI: 13.4 µM
[46]
  GI50: 10.5 µM
  TGI: 22.4 µM
[14]
  GI50: 0.306 µM
  TGI: 16 µM
[47]
  GI50: 5.3 µM
  TGI: 22.4 µM
[15]
  GI50: 2.76 µM
  TGI: 12.3 µM
[48]
  GI50: 7.05 µM
  TGI: 20.3 µM
[16]
  GI50: 6.8 µM
  TGI: 20.5 µM
[17]
  GI50: 1.32 µM
  TGI: 4.12 µM
[49]
  GI50: 13 µM
  TGI: 25.8 µM
[18]
  GI50: 2.74 µM
  TGI: 16.9 µM
[50]
  GI50: 5.74 µM
  TGI: 20.3 µM
[51]
  GI50: 10.3 µM
  TGI: 22.5 µM
[19]
  GI50: 5.47 µM
  TGI: 18.7 µM
[52]
  GI50: 10.2 µM
  TGI: 22 µM
[20]
  GI50: 3.85 µM
  TGI: 17.9 µM
[21]
  GI50: 10 µM
  TGI: 22.8 µM
[22]
  GI50: 5.36 µM
  TGI: 18.3 µM
[23]
  GI50: 1.9 µM
  TGI: 6.36 µM
[24]
  GI50: 5.42 µM
  TGI: 18.9 µM
[53]
  GI50: 5.63 µM
  TGI: 17.9 µM
[25]
  GI50: 2.79 µM
  TGI: 15.5 µM
[26]
  GI50: 10.8 µM
  TGI: 22.9 µM
[54]
  GI50: 12.9 µM
  TGI: 25.6 µM
[55]
  GI50: 7.55 µM
  TGI: 20.7 µM
[27]
  GI50: 5.74 µM
  TGI: 19 µM
[56]
  GI50: 4.22 µM
  TGI: 17.4 µM
[57]
  GI50: 9.96 µM
  TGI: 21.6 µM
[28]
  GI50: 13 µM
  TGI: 25.9 µM
[29]
  GI50: 13 µM
  TGI: 25.8 µM
[30]
  GI50: 10.3 µM
  TGI: 23.3 µM
[58]
  GI50: 2.17 µM
  TGI: 14.9 µM
